From patent US8697747B2, “Enhancing coagulation or reducing fibrinolysis” (THe UAB Research Foundation, priority 2009, dated 2014)

Test system: pooled normal plasma
Experiment: CLSM thrombelastography with tPA in undiluted and 30% diluted plasma
Format: biochemical, human
Settings: tPA 100 IU/mL, 100 μM CORM-2, median, n=8
Source text: Plasma and volume expanders. Pooled normal plasma (George King Bio-Medical, Overland Park, Kans.) anticoagulated with sodium citrate was utilized for experimentation. […] The volume expanders tested were 0.9% NaCl (Abbott Laboratories, North Chicago, Ill.; also designated as NS) and 6% hydroxylethyl starch (HES) in 0.9% NaCl (VOLUVEN®, average molecular weight 130 kDa, 0.4 degree of substitution, C2:C6 ratio of substitution 11.2; Fresenius Kabi, Bad Homburg, Germany; also referred to as VOL).
Plasma sample composition of experiments with tissue-type plasminogen activator addition. As in the first series of experiments, the final volume of plasma sample mixtures was 359.6 μL. Sample composition consisted of 316 μL of plasma/volume expander, 10 μL of tissue factor reagent (0.1% final concentration), 3.6 μL of DMSO without or with CORM-2 (100 μM final concentration), 10 μL of tissue-type plasminogen activator (tPA, 580 U/μg, Genentech, Inc., San Francisco, Calif.) diluted with 10 mM potassium phosphate buffer (pH 7.4) for a final activity of 100 IU/mL, and 20 μL of 200 mM CaCl2. As with tissue factor reagent, tPA stock was kept on ice prior to use and was remade every two hours. Plasma was diluted 0% or 30% with NS or VOL (n=8 per condition).
Clot Lifespan Model (CLSM) Analyses. Plasma sample mixtures were placed in a disposable cup in a computer-controlled THROMBELASTOGRAPH® hemostasis system (Model 5000, Haemoscope Corp., Niles, Ill.), with addition of CaCl2 as the last step to initiate clotting. In the first series of experiments, no tPA was added, so data were collected until clot strength (maximum amplitude) was stable. In the second series of experiments which in tPA was added, data were collected until clot lysis time occurred. […] Additional elastic modulus-based parameters were determined and the nomenclature used to describe these phenomena is as follows: Time to maximum rate of thrombus generation (TMRTG): This is the time interval (sec) observed prior to maximum speed of clot growth. Maximum rate of thrombus generation (MRTG): This is the maximum velocity of clot growth observed (dynes/cm^2/sec). Total Thrombus Generation (TTG): This is the total area under the velocity curve during clot growth (dynes/cm^2), representing the amount of clot strength generated during clot growth. Time to maximum rate of lysis (TMRL): This is the time interval (sec) measured from the time of maximum strength to the time when the velocity of clot disintegration is maximal. Maximum Rate of Lysis (MRL): This is the maximum velocity of clot disintegration observed (−dynes/cm^2/sec). Area of Clot Lysis (ACL): This is the total area under the velocity curve during clot disintegration (−dynes/cm^2), representing the amount of clot strength lost during clot disintegration. As this model involves complete fibrinolysis, TTG is equivalent to ACL, so ACL was not presented as it provides no additional information.
Statistical Analyses. Data obtained from pooled normal plasma not exposed to tPA were graphically represented with commercially available software (SigmaPlot 11.0, Systat Software, Inc., San Jose, Calif.), and kinetic modeling of thrombelastographic data performed with the same software. Analyses of the effects of hemodilution and CORM-2 on CLSM variables obtained from pooled normal plasma were conducted using Kruskal-Wallis one way analysis of variance with Student-Newman-Keuls post-hoc test. […] These analyses were conducted with the same commercially available software (SigmaPlot 11.0). A P value of <0.05 was considered significant.

In the case of `[C-]#[O+].[C-]#[O+].[C-]#[O+].[C-]#[O+].[C-]#[O+].[C-]#[O+].[Cl][Ru][Cl].[Cl][Ru][Cl]` [CORM-2, tricarbonyldichlororuthenium (II) dimer], the “CGT (clot growth time)” value (plasma diluted 30% with NS) is reported as 8.0 min, the “CLS (clot lifespan)” value (plasma diluted 30% with NS) is reported as 38.7 min and the “CLT (clot lysis time)” value (plasma diluted 30% with NS) is reported as 31.5 min. For the same compound, the “MRL (maximum rate of lysis)” value (plasma diluted 30% with NS) was −1.9 −dynes/cm^2/sec, the “MRTG (maximum rate of thrombus generation)” value (plasma diluted 30% with NS) was 11.2 dynes/cm^2/sec and the “TMRL (time to maximum rate of lysis)” value (plasma diluted 30% with NS) was 23.4 min. For the same compound, the “TMRTG (time to maximum rate of thrombus generation)” value (shortened to “TMRTG”) (plasma diluted 30% with NS) was 2.00 min, the “TTG (total thrombus generation)” value (plasma diluted 30% with NS) was 206 dynes/cm^2 and the “CGT (clot growth time)” value (plasma diluted 30% with VOL) was 2.2 min. The “CLS (clot lifespan)” value (plasma diluted 30% with VOL) was 10.0 min, the “CLT (clot lysis time)” value (plasma diluted 30% with VOL) was 8.0 min and the “MRL (maximum rate of lysis)” value (plasma diluted 30% with VOL) was −0.9 −dynes/cm^2/sec. For the same compound, the “MRTG (maximum rate of thrombus generation)” value (plasma diluted 30% with VOL) was 3.8 dynes/cm^2/sec, the “TMRL (time to maximum rate of lysis)” value (plasma diluted 30% with VOL) was 5.2 min and the “TMRTG” value (plasma diluted 30% with VOL) was 2.0 min. The “TTG (total thrombus generation)” value (plasma diluted 30% with VOL) was 62 dynes/cm^2, the “CGT (clot growth time)” value (undiluted plasma) was 8.1 min and the “CLS (clot lifespan)” value (undiluted plasma) was 31.6 min. The “CLT (clot lysis time)” value (undiluted plasma) was 24.3 min, the “MRL (maximum rate of lysis)” value (undiluted plasma) was −3.0 −dynes/cm^2/sec and the “MRTG (maximum rate of thrombus generation)” value (undiluted plasma) was 13.9 dynes/cm^2/sec. The “TMRL (time to maximum rate of lysis)” value (undiluted plasma) was 17.7 min, the “TMRTG” value (undiluted plasma) was 2.1 min and the “TTG (total thrombus generation)” value (undiluted plasma) was 285 dynes/cm^2.
